# In the NIST ThermoML archive (doi:10.1016/j.fluid.2014.01.019):
# Numbers after ± are expanded uncertainties.
# Test: xn = mol fraction of the nth substance listed
# Conditions: 101 kPa, Liquid; for mass density: Vibrating tube method; for speed of sound: Frequency=2 MHz, Linear variable-path acoustic interferometer
smiles,measurement,setting,value
Cc1ccccc1Cl [2-chlorotoluene] + OCc1ccccc1,mass density,"298.15 K, x2 = 0.0507",1074.83 ± 0.15 kg/m3
same,mass density,"298.15 K, x2 = 0.1134",1072.8 ± 0.15 kg/m3
same,mass density,"298.15 K, x2 = 0.1507",1071.57 ± 0.15 kg/m3
same,mass density,"298.15 K, x2 = 0.1894",1070.31 ± 0.15 kg/m3
same,mass density,"298.15 K, x2 = 0.2477",1068.37 ± 0.15 kg/m3
same,mass density,"298.15 K, x2 = 0.3059",1066.42 ± 0.15 kg/m3
same,mass density,"298.15 K, x2 = 0.3686",1064.3 ± 0.15 kg/m3
same,mass density,"298.15 K, x2 = 0.4535",1061.39 ± 0.15 kg/m3
same,mass density,"298.15 K, x2 = 0.5385",1058.41 ± 0.15 kg/m3
same,mass density,"298.15 K, x2 = 0.6309",1055.16 ± 0.15 kg/m3
same,mass density,"298.15 K, x2 = 0.7003",1052.67 ± 0.15 kg/m3
same,mass density,"298.15 K, x2 = 0.7723",1050.04 ± 0.15 kg/m3
same,mass density,"298.15 K, x2 = 0.8537",1047.01 ± 0.15 kg/m3
same,mass density,"298.15 K, x2 = 0.8902",1045.64 ± 0.15 kg/m3
same,mass density,"298.15 K, x2 = 0.9547",1043.18 ± 0.14 kg/m3
same,speed of sound,"303.15 K, x2 = 0.0507",1301 ± 8 m/s
same,speed of sound,"303.15 K, x2 = 0.1134",1320 ± 8 m/s
same,speed of sound,"303.15 K, x2 = 0.1507",1332 ± 8 m/s
same,speed of sound,"303.15 K, x2 = 0.1894",1344 ± 8 m/s
same,speed of sound,"303.15 K, x2 = 0.2477",1360 ± 8 m/s
same,speed of sound,"303.15 K, x2 = 0.3059",1377 ± 8 m/s
same,speed of sound,"303.15 K, x2 = 0.3686",1394 ± 9 m/s
same,speed of sound,"303.15 K, x2 = 0.4535",1415 ± 9 m/s
same,speed of sound,"303.15 K, x2 = 0.5385",1436 ± 9 m/s
same,speed of sound,"303.15 K, x2 = 0.6309",1456 ± 9 m/s
same,speed of sound,"303.15 K, x2 = 0.7003",1469 ± 9 m/s
same,speed of sound,"303.15 K, x2 = 0.7723",1482 ± 9 m/s
same,speed of sound,"303.15 K, x2 = 0.8537",1496 ± 9 m/s
same,speed of sound,"303.15 K, x2 = 0.8902",1499 ± 9 m/s
same,speed of sound,"303.15 K, x2 = 0.9547",1508 ± 9 m/s
same,mass density,"303.15 K, x2 = 0.0507",1071.16 ± 0.15 kg/m3
same,mass density,"303.15 K, x2 = 0.1134",1068.97 ± 0.15 kg/m3
same,mass density,"303.15 K, x2 = 0.1507",1067.66 ± 0.15 kg/m3
same,mass density,"303.15 K, x2 = 0.1894",1066.29 ± 0.15 kg/m3
same,mass density,"303.15 K, x2 = 0.2477",1064.25 ± 0.15 kg/m3
same,mass density,"303.15 K, x2 = 0.3059",1062.2 ± 0.15 kg/m3
same,mass density,"303.15 K, x2 = 0.3686",1060 ± 0.15 kg/m3
same,mass density,"303.15 K, x2 = 0.4535",1057.02 ± 0.15 kg/m3
same,mass density,"303.15 K, x2 = 0.5385",1054.04 ± 0.15 kg/m3
same,mass density,"303.15 K, x2 = 0.6309",1050.78 ± 0.15 kg/m3
same,mass density,"303.15 K, x2 = 0.7003",1048.32 ± 0.15 kg/m3
same,mass density,"303.15 K, x2 = 0.7723",1045.77 ± 0.15 kg/m3
same,mass density,"303.15 K, x2 = 0.8537",1042.88 ± 0.14 kg/m3
same,mass density,"303.15 K, x2 = 0.8902",1041.6 ± 0.14 kg/m3
same,mass density,"303.15 K, x2 = 0.9547",1039.28 ± 0.14 kg/m3
same,mass density,"308.15 K, x2 = 0.0507",1066.48 ± 0.15 kg/m3
same,mass density,"308.15 K, x2 = 0.1134",1064.3 ± 0.15 kg/m3
same,mass density,"308.15 K, x2 = 0.1507",1062.99 ± 0.15 kg/m3
same,mass density,"308.15 K, x2 = 0.1894",1061.66 ± 0.15 kg/m3
same,mass density,"308.15 K, x2 = 0.2477",1059.65 ± 0.15 kg/m3
same,mass density,"308.15 K, x2 = 0.3059",1057.64 ± 0.15 kg/m3
same,mass density,"308.15 K, x2 = 0.3686",1055.47 ± 0.15 kg/m3
same,mass density,"308.15 K, x2 = 0.4535",1052.56 ± 0.15 kg/m3
same,mass density,"308.15 K, x2 = 0.5385",1049.63 ± 0.15 kg/m3
same,mass density,"308.15 K, x2 = 0.6309",1046.46 ± 0.15 kg/m3
same,mass density,"308.15 K, x2 = 0.7003",1044.08 ± 0.15 kg/m3
same,mass density,"308.15 K, x2 = 0.7723",1041.59 ± 0.14 kg/m3
same,mass density,"308.15 K, x2 = 0.8537",1038.81 ± 0.14 kg/m3
same,mass density,"308.15 K, x2 = 0.8902",1037.56 ± 0.14 kg/m3
same,mass density,"308.15 K, x2 = 0.9547",1035.35 ± 0.14 kg/m3
same,speed of sound,"313.15 K, x2 = 0.0507",1296 ± 8 m/s
same,speed of sound,"313.15 K, x2 = 0.1134",1308 ± 8 m/s
same,speed of sound,"313.15 K, x2 = 0.1507",1316 ± 8 m/s
same,speed of sound,"313.15 K, x2 = 0.1894",1325 ± 8 m/s
same,speed of sound,"313.15 K, x2 = 0.2477",1336 ± 8 m/s
same,speed of sound,"313.15 K, x2 = 0.3059",1348 ± 8 m/s
same,speed of sound,"313.15 K, x2 = 0.3686",1360 ± 8 m/s
same,speed of sound,"313.15 K, x2 = 0.4535",1377 ± 8 m/s
same,speed of sound,"313.15 K, x2 = 0.5385",1393 ± 9 m/s
same,speed of sound,"313.15 K, x2 = 0.6309",1411 ± 9 m/s
same,speed of sound,"313.15 K, x2 = 0.7003",1426 ± 9 m/s
same,speed of sound,"313.15 K, x2 = 0.7723",1442 ± 9 m/s
same,speed of sound,"313.15 K, x2 = 0.8537",1458 ± 9 m/s
same,speed of sound,"313.15 K, x2 = 0.8902",1466 ± 9 m/s
same,speed of sound,"313.15 K, x2 = 0.9547",1478 ± 9 m/s
same,mass density,"313.15 K, x2 = 0.0507",1061.94 ± 0.15 kg/m3
same,mass density,"313.15 K, x2 = 0.1134",1059.77 ± 0.15 kg/m3
same,mass density,"313.15 K, x2 = 0.1507",1058.47 ± 0.15 kg/m3
same,mass density,"313.15 K, x2 = 0.1894",1057.14 ± 0.15 kg/m3
same,mass density,"313.15 K, x2 = 0.2477",1055.13 ± 0.15 kg/m3
same,mass density,"313.15 K, x2 = 0.3059",1053.16 ± 0.15 kg/m3
same,mass density,"313.15 K, x2 = 0.3686",1051.04 ± 0.15 kg/m3
same,mass density,"313.15 K, x2 = 0.4535",1048.18 ± 0.15 kg/m3
same,mass density,"313.15 K, x2 = 0.5385",1045.3 ± 0.15 kg/m3
same,mass density,"313.15 K, x2 = 0.6309",1042.2 ± 0.15 kg/m3
same,mass density,"313.15 K, x2 = 0.7003",1039.89 ± 0.14 kg/m3
same,mass density,"313.15 K, x2 = 0.7723",1037.48 ± 0.14 kg/m3
same,mass density,"313.15 K, x2 = 0.8537",1034.72 ± 0.14 kg/m3
same,mass density,"313.15 K, x2 = 0.8902",1033.55 ± 0.14 kg/m3
same,mass density,"313.15 K, x2 = 0.9547",1031.4 ± 0.14 kg/m3
